Experimental data taken from patent US6596730B1, “Phenyl urea and phenyl thiourea derivatives” (SmithKline Beecham p.l.c., priority 1999, dated 2003).
Where a name gives a salt, the structure may show the parent alone.

Columns and labels:
rat = assay: Rat sleep/EEG studies, central administration; assay type: in vivo; conditions: central administration at the onset of the normal sleep period
Text: Therefore antagonists of its receptor may be useful in the treatment of sleep disorders including insomnia.

freely-feeding rats = conditions: central administration, 4 hour time period; cited from earlier work
human orexin-1 receptor = target: T1, human orexin-1 receptor (Homo sapiens, UniProt O43613); assay: Determination of orexin-1 receptor antagonist activity (FLIPR calcium mobilisation, HEK293 cells, against 3.0 nM human orexin-A); assay type: cell-based; conditions: HEK293 cells expressing human orexin-1 receptor; Kb=IC50/(1+([3/EC50]); agonist 3.0 nM human orexin-A
T1 construct: expressed in transfected cells; host or cells: HEK293
T1 sequence (O43613 1-425): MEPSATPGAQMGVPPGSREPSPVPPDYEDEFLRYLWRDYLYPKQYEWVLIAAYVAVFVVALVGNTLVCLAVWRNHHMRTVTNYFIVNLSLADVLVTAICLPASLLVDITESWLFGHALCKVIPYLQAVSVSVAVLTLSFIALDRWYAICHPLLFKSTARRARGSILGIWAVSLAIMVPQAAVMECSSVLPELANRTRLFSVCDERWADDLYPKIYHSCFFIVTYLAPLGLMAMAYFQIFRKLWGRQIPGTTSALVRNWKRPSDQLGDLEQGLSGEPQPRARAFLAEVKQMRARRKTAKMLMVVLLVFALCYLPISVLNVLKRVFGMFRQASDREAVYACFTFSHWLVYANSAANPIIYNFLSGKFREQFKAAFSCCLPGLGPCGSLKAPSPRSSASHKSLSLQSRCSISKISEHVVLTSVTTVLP
Experimental: The orexin-1 receptor antagonist activity of the compounds of formula (I) was determined in accordance with the following experimental method.
HEK293 cells expressing the human orexin-1 receptor were grown in cell medium (MEM medium with Earl's salts) containing 2 mM L-Glutamine, 0.4 mg/mL G418 Sulfate from GIBCO BRL and 10% heat inactivated fetal calf serum from Gibco BRL. The cells were seeded at 20,000 cells/100 μl/well into 96-well black clear bottom sterile plates from Costar which had been pre-coated with 10 μg/well of poly-L-lysine from SIGMA. The seeded plates were incubated overnight at 37° C. in 5% CO2.
Agonists were prepared as 1 mM stocks in water:DMSO (1:1). […] Antagonist IC^50 values (the concentration of compound needed to inhibit 50% of the agonist response) were determined against 3.0 nM human orexin-A using 11×half log unit dilutions in Tyrode's buffer containing 10% DMSO and probenecid. On the day of assay 50 μl of cell medium containing probenecid (Sigma) and Fluo3AM (Texas Fluorescence Laboratories) was added (Quadra, Tomtec) to each well to give final concentrations of 2.5 mM and 4 μM, respectively. […] Cell plates were then transferred to the Fluorescent Imaging Plate Reader (FLIPR, Molecular Devices) instrument and maintained at 37° C. in humidified air. […] Agonists were added (by the FLIPR) after 20 sec (during continuous reading). […]

Kb (human orexin-1 receptor) [µM]	Molecule	effect on arousal / sleep (rat)	increase in food intake over control rats receiving vehicle (freely-feeding rats)
	orexin-A: ligand for the orexin-1 receptor, agonist of the orexin receptors; 33-residue peptide, sequence given in the 1st table (QPLPDCCRQKTCSCRLYELLHGAGNHAAGILTL; Orexin-A; UniProt O43612 34-66, looked up)	dose-related increase in arousal	approximately four-fold
< 0.0316	COc1ccc(NC(=O)Nc2cc(C)nc3cccnc23)cc1C(=O)NCC1CC1 [Example 2, N-Cyclopropylmethyl-2-methoxy-5-[3-(2-methyl-[1,5]-naphthyridin-4-yl)ureido]benzamide Hydrochloride]		
